Measurements: US20210300943A1, “OGA INHIBITOR COMPOUNDS” (Janssen Pharmaceutica NV, priority 2018, published 2021)

Tests used:
[1] = target: T1, recombinant human Meningioma Expressed Antigen 5 (MGEA5), also referred to as O-GlcNAcase (OGA) (Homo sapiens, UniProt O60502); assay: OGA biochemical assay (inhibition of FM-GlcNAc hydrolysis, fluorescence); conditions: for Emax / Enzymatic Emax (%): maximal effect; for Emax: read-out: Enzymatic Emax (%); for IC50: read-out: Enzymatic hOGA, pIC50 (converted)
T1 construct: Full length OGA enzyme was purchased at OnGene (cat #TP322411); purchased OnGene (so in the source)
T1 sequence (O60502 1-916): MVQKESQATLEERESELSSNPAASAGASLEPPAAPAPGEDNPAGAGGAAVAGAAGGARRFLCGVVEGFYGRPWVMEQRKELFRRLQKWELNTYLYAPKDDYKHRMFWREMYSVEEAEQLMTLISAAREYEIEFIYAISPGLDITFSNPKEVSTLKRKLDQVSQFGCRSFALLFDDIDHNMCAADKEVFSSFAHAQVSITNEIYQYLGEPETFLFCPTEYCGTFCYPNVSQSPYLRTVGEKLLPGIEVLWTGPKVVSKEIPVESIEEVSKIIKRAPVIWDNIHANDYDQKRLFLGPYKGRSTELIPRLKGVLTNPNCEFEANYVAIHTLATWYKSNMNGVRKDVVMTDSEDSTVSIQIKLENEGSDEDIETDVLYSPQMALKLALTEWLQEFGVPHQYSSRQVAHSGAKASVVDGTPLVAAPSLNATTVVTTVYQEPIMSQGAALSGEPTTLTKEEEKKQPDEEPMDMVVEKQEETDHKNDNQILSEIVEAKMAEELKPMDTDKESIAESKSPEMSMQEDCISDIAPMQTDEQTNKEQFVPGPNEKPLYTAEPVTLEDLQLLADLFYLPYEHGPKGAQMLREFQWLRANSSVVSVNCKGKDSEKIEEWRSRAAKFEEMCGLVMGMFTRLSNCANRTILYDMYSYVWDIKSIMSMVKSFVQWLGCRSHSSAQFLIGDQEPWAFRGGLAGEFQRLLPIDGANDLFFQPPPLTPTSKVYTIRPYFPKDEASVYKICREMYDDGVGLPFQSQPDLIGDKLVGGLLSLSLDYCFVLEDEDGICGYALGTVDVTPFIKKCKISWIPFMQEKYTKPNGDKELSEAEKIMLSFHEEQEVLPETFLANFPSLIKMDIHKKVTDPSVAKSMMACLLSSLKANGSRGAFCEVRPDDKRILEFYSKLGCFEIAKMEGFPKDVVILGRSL
Excerpt: The assay is based on the inhibition of the hydrolysis of fluorescein mono-β-D-N-Acetyl-Glucosamine (FM-GlcNAc) (Mariappa et al. 2015, Biochem J 470:255) by the recombinant human Meningioma Expressed Antigen 5 (MGEA5), also referred to as O-GlcNAcase (OGA). The hydrolysis FM-GlcNAc (Marker Gene technologies, cat #M1485) results in the formation of β-D-N-glucosamineacetate and fluorescein. The fluorescence of the latter can be measured at excitation wavelength 485 nm and emission wavelength 538 nm. An increase in enzyme activity results in an increase in fluorescence signal. Full length OGA enzyme was purchased at OnGene (cat #TP322411). The enzyme was stored in 25 mM Tris.HCl, pH 7.3, 100 mM glycine, 10% glycerol at −20° C. Thiamet G and GlcNAcStatin were tested as reference compounds (Yuzwa et al. 2008 Nature Chemical Biology 4:483; Yuzwa et al. 2012 Nature Chemical Biology 8:393). The assay was performed in 200 mM Citrate/phosphate buffer supplemented with 0.005% Tween-20. 35.6 g Na2HPO42H2O (Sigma, #C0759) were dissolved in 1 L water to obtain a 200 mM solution. 19.2 g citric acid (Merck, #1.06580) was dissolved in 1 L water to obtain a 100 mM solution. pH of the sodiumphosphate solution was adjusted with the citric acid solution to 7.2. The buffer to stop the reaction consists of a 500 mM Carbonate buffer, pH 11.0. 734 mg FM-GlcNAc were dissolved in 5.48 mL DMSO to obtain a 250 mM solution and was stored at −20° C. OGA was used at a 2 nM concentration and FM-GlcNAc at a 100 uM final concentration. Dilutions were prepared in assay buffer.
50 nl of a compound dissolved in DMSO was dispensed on Black Proxiplate TM 384 Plus Assay plates (Perkin Elmer, #6008269) and 3 μl fl-OGA enzyme mix added subsequently. Plates were pre-incubated for 60 min at room temperature and then 2 μl FM-GlcNAc substrate mix added. […] Plates were briefly centrifuged for 1 min at 1000 rpm and incubate at room temperature for 6 h. To stop the reaction 5 μl STOP buffer were added and plates centrifuge again 1 min at 1000 rpm. Fluorescence was quantified in the Thermo Scientific Fluoroskan Ascent or the PerkinElmer EnVision with excitation wavelength 485 nm and emission wavelength 538 nm.
For analysis a best-fit curve is fitted by a minimum sum of squares method. From this an IC50 value and Hill coefficient was obtained. High control (no inhibitor) and low control (saturating concentrations of standard inhibitor) were used to define the minimum and maximum values.

OGA = target: T2, OGA (Homo sapiens, UniProt O60502); assay: OGA cellular assay (ICC detection of O-GlcNAcylated proteins in HEK293 cells inducible for P301L mutant human Tau); format: cell-based; conditions: for Emax: HEK293, HEK293 cells inducible for P301L mutant human Tau; for EC50: 6 hours incubation, read-out: Cellular hOGA, pEC50 (converted)
T2 construct: endogenous in cells; host or cells: HEK293 cells inducible for P301L mutant human Tau (2N4R)
T2 sequence (O60502 1-916): T1 sequence (O60502 1-916)
Protocol: HEK293 cells inducible for P301L mutant human Tau (isoform 2N4R) were established at Janssen. Thiamet-G was used for both plate validation (high control) and as reference compound (reference EC50 assay validation). OGA inhibition is evaluated through the immunocytochemical (ICC) detection of O-GlcNAcylated proteins by the use of a monoclonal antibody (CTD110.6; Cell Signaling, #9875) detecting 0-GlcNAcylated residues as previously described (Dorfmueller et al. 2010 Chemistry & biology, 17:1250). Inhibition of OGA will result in an increase of O-GlcNAcylated protein levels resulting in an increased signal in the experiment. Cell nuclei are stained with Hoechst to give a cell culture quality control and a rough estimate of immediate compounds toxicity, if any. ICC pictures are imaged with a Perkin Elmer Opera Phenix plate microscope and quantified with the provided software Perkin Elmer Harmony 4.1.
Cells were propagated in DMEM high Glucose (Sigma, #D5796) following standard procedures. 2 days before the cell assay cells are split, counted and seeded in Poly-D-Lysine (PDL) coated 96-wells (Greiner, #655946) plate at a cell density of 12,000 cells per cm^2 (4,000 cells per well) in 100 μl of Assay Medium (Low Glucose medium is used to reduce basal levels of GlcNAcylation) (Park et al. 2014 The Journal of biological chemistry 289:13519). At the day of compound test medium from assay plates was removed and replenished with 90 μl of fresh Assay Medium. 10 μl of compounds at a 10 fold final concentration were added to the wells. Plates were centrifuged shortly before incubation in the cell incubator for 6 hours. DMSO concentration was set to 0.2%. Medium is discarded by applying vacuum. For staining of cells medium was removed and cells washed once with 100 μl D-PBS (Sigma, #D8537). From next step onwards unless other stated assay volume was always 50 μl and incubation was performed without agitation and at room temperature. Cells were fixed in 50 μl of a 4% paraformaldehyde (PFA, Alpha aesar, #043368) PBS solution for 15 minutes at room temperature. […] Before analysis samples were washed 2 times manually for 5 minutes in ICC base buffer.
Imaging is performed using Perkin Elmer Phenix Opera using a water 20× objective and recording 9 fields per well. Intensity readout at 488 nm is used as a measure of O-GlcNAcylation level of total proteins in wells. To assess potential toxicity of compounds nuclei were counted using the Hoechst staining. IC50-values are calculated using parametric non-linear regression model fitting. As a maximum inhibition Thiamet G at a 200 uM concentration is present on each plate. In addition, a concentration response of Thiamet G is calculated on each plate.

[2] = maximal effect, Thiamet G 200 uM as maximum
[3] = HEK293 cells inducible for P301L mutant human Tau

SMILES | Emax [1] [%] | IC50 [1] [nM] | Emax (OGA; [2]) [%] | EC50 (OGA; [3]) [nM] | Enzymatic Emax (%) [1] [%] | Cellular Emax (%) (OGA; HEK293 cells inducible for P301L mutant human Tau, maximal effect, Thiamet G 200 uM as maximum)
Cc1cc(OC[C@@H]2CCCN([C@@H](C)c3ccc4c(n3)OCCO4)C2)cc(C)n1 (relative stereo) [Product 108] | 37 | > 10000 | -8 | > 1000 |  | 
Cc1cc(OC[C@@H]2CCCN([C@H](C)c3ccc4c(n3)OCCO4)C2)cc(C)n1 (relative stereo) [Product 109] | 95 | 251 | 37 | > 1000 |  | 
COc1cc(NC[C@H]2CCCN(C(C)c3ccc4c(n3)OCCO4)C2)cc(C)n1 (single isomer, unassigned) [Product 26] |  | 2.51 | 85 | 5.01 | 101 | 
Cc1cc(NCC2CCCN(C(C)c3ccc4c(n3)OCCO4)C2)cc(C(F)(F)F)n1 (single isomer, unassigned) [Product 33] | 102 | 2.51 | 83 | 31.6 |  | 
Cc1cc(C[C@H]2CCCN(C(C)c3cc4c(cc3F)OCCO4)C2)cc(C)n1 (single isomer, unassigned) [Product 42] | 99 | 2 | 86 | 6.31 |  | 
Cc1cc(C[C@H]2CCCN([C@@H](C)c3ccc4c(n3)OCCO4)C2)cc(C)n1 (single isomer, unassigned) [Product 46] | 101 | 3.16 | 90 | 15.8 |  | 
Cc1cc(C[C@H]2CCCN(C(C)c3cnc4c(c3)OCCN4)C2)cc(C)n1 (single isomer, unassigned) [Product 52] |  | 1.26 | 92 | 6.31 | 104 | 
Cc1cc(C[C@H]2CCCN(C(C)c3cnc4c(c3)OCCO4)C2)cc(C)n1 (single isomer, unassigned) [Product 132] | 103 | 5.01 | 77 | 79.4 |  | 
Cc1cc(OC[C@H]2CCCN(C(C)c3ccc4c(n3)OCCO4)C2)cc(C)n1 (single isomer, unassigned) [Product 139] | 98 | 7.94 | 88 | 20 |  | 
Cc1cc(OC[C@H]2CCCN([C@@H](C)c3ccc4c(n3)OCCO4)C2)cc(C)n1 (single isomer, unassigned) [Product 140] | 72 | 3980 | 2 | > 1000 |  | 
Cc1cc([C@H]2CCCN(C(C)c3ccc4c(n3)OCCO4)C2)cc(C)n1 (single isomer, unassigned) [Product 149] | 100 | 10 | 93 | 31.6 |  | 
Cc1cc([C@@H]2CCCN(C(C)c3ccc4c(n3)OCCO4)C2)cc(C)n1 (single isomer, unassigned) [Product 150] | 92 | 2000 | 3 | > 1000 |  | 
Cc1cc(OC[C@H]2CCCN(C(C)c3nc4c(cc3F)OCCO4)C2)cc(C)n1 (single isomer, unassigned) [Product 156] |  | 251 |  | 316 | 97 | 55
Cc1cc([C@H]2CCCN([C@H](C)c3ccc4c(n3)OCCO4)C2)cc(C)n1 (single isomer, unassigned) [Product 158] | 102 | 7.94 | 89 | 39.8 |  | 
Cc1cc([C@H]2CCCN([C@@H](C)c3ccc4c(n3)OCCO4)C2)cc(C)n1 (single isomer, unassigned) [Product 159] | 91 | 1260 | 0 | > 1000 |  | 
Cc1cc([C@@H]2CCCN([C@H](C)c3ccc4c(n3)OCCO4)C2)cc(C)n1 (single isomer, unassigned) [Product 160] | 89 | 2000 | 5 | > 1000 |  | 
Cc1cc([C@@H]2CCCN([C@@H](C)c3ccc4c(n3)OCCO4)C2)cc(C)n1 (single isomer, unassigned) [Product 161] | 79 | 3160 | -4 | > 1000 |  | 
